Test results as given in patent publication US6696600B2, “L-DOPA ethyl ester salts and uses thereof” (priority 2001, dated 2004).
Like-named read-outs stand apart in the source and are kept apart here.

What was measured:
[1] = pH of water solution; type: physicochemical
[2] = pKa and delta pKa (pKa LDEE − pKa acid); type: physicochemical
Text: Preparation and selection of salts that have different physical properties are detailed in the literature. […]. PKa of LDEE free base is known to be 7.24 [8]. […]. This fact is illustrated in Example 1 below, in which the crystallization of LDEE palmitate was attempted. After dissolution of LDEE base and palmitic acid in absolute alcohol, the solution was cooled, and instead of forming a new salt, pure palmitic acid was crystallized out, and no solid crystalline salt was formed. […]

[3] = Hygroscopicity test: weight gain of solid sample in humidity chamber at RH=80%; type: physicochemical; conditions: for hygroscopicity (in words): RH=80% screening; for weight gain in hygroscopicity test / appearance after exposure in a humidity chamber: RH=80%; for weight gain in hygroscopicity test: T=20±2° C.
Text: There are many methods of quantitative evaluation of hygroscopicity of solid products without measuring the hygroscopic point. The most widely used method is based on measuring the weight gain of a solid sample in a humidity chamber. […] This method was used for screening the hygroscopicity of several LDEE salts. It also provides a comparison of the hygroscopic properties of different solids by comparison of water absorption rates under the same conditions.

[4] = acid or acid salt used for salt preparation; cited from earlier work
[5] = Stability of dihydrates, impurity profile (HPLC), 8 days at 65° C.; type: physicochemical
Method: The stability of succinate dihydrate and fumarate dihydrate were investigated under the following test conditions: 8 days at 65° C. in glass vial (air) (Table 1).

[6] = End, 8 days at 65° C. in glass vial (air)

| Compound | pH of water solution [1] | delta pKa pKaLDEE − pKaacid (first value) [2] | delta pKa pKaLDEE − pKaacid (second value) [2] | Color stability at RH = 80% [3] [h] | Mean water absorption rate at RH = 80% [3] [mol/kg/h] | Material appearance after 24 hrs at RH = 80% [3] | Weight gain during 24 hrs at RH = 80%,% [3] [%] | hygroscopicity (in words) [3] | weight gain in hygroscopicity test ([3]; during 24 hrs) [%] | other results |
| --- | --- | --- | --- | --- | --- | --- | --- | --- | --- | --- |
| CCO.CCOC(=O)[C@@H](N)Cc1ccc(O)c(O)c1.CCOC(=O)[C@@H](N)Cc1ccc(O)c(O)c1.O=C(O)CCCCC(=O)O [Example 21, LDEE Adipate Ethanolate] | 6 | 2.81 | 1.83 | >24 | 0.121 | Semi-solid melt | 5.25 | hygroscopic | 5.25 | – |
| CCCCCCCC(=O)O.CCOC(=O)[C@@H](N)Cc1ccc(O)c(O)c1 [Example 19, LDEE Octanoate] | 6.0-6.5 | 2.35 | – | >48 | 0.005 | White flowable powder | 0.22 | non-hygroscopic | 0.22 | water absorption at RH=80% (in words) [3]: did not absorb water; appearance after exposure in a humidity chamber ([3]; about 48 hrs): white flowable powder |
| CCO.CCOC(=O)[C@@H](N)Cc1ccc(O)c(O)c1.CCOC(=O)[C@@H](N)Cc1ccc(O)c(O)c1.O=C(O)CCC(=O)O [Example 22, LDEE Succinate Ethanolate] | 6 | 3.08 | 1.63 | >24 | 0.067 | Semi-solid melt | 2.9 | hygroscopic | – | weight gain in hygroscopicity test ([3]; during 8 hrs): 4.3% |
| LDEE Phenylbutyrate [Example 10] | 5.5-6.0 | 2.48 | – | 1.0 | 0.023 | Semi-solid melt | 1.0 | hygroscopic | 1.03 | – |
| CCOC(=O)C(N)Cc1ccc(O)c(O)c1.O=C(O)C(O)C(O)C(=O)O (mixture of isomers) [Example 7, LDEE (LD)Tartrate] | – | 4.26 | 2.90 | 20 | 0.146 | Syrup | 6.3 | hygroscopic | 6.3 | – |
| CCCCCCCC/C=C\CCCCCCCC(=O)O [Oleic acid] | – | – | – | – | – | – | – | – | – | pKa (first value) [4]: ˜4.8 |
| LDEE Citrate [Example 12] | – | – | – | 20 | 0.146 | Semi-solid melt | 6.3 | hygroscopic | 6.3 | delta pKa pKaLDEE − pKaacid (first value) ([2]; first pKa of the acid): 4.11; delta pKa pKaLDEE − pKaacid (second value) ([2]; second pKa of the acid): 4.28; delta pKa pKaLDEE − pKaacid (third value) ([2]; third pKa of the acid): 0.84 |
| O=C(O)CCCc1ccccc1 [Phenyl Butyric acid] | – | – | – | – | – | – | – | – | – | pKa (first value) [4]: 4.76 |
| CCCCCCCCCCCCCC(=O)O [Myristic acid] | – | – | – | – | – | – | – | – | – | pKa (first value) [4]: ˜4.8 |
| LDEE Ascorbate [Example 14] | – | 3.14 | – | 0 to 5 | 0.162 | Red semi-solid melt | 7.0 | hygroscopic | 7.04 | – |
| CCOC(=O)C(N)Cc1ccc(O)c(O)c1.O=C(O)C(O)c1ccccc1 (stereo not drawn) [Example 17, LDEE R(−)Mandelate] | – | – | – | >24 | 0.125 | Semi-solid melt | 5.4 | hygroscopic | 5.4 | delta pKa pKaLDEE − pKaacid (first value) ([2]; first pKa of the acid): 3.4 |
| CCOC(=O)[C@@H](N)Cc1ccc(O)c(O)c1.O=C(O)C(O)C(O)C(=O)O [Example 6, LDEE D(−)Tartrate] | – | – | – | 20 | 0.155 | – | 6.7 | – | 6.7 | delta pKa pKaLDEE − pKaacid (first value) ([2]; first pKa of the acid): 4.26 |
| CCOC(=O)[C@@H](N)Cc1ccc(O)c(O)c1.O=C(O)C(O)C(O)C(=O)O [Example 4, LDEE L(+)Tartrate] | – | 4.26 | 2.90 | 15 | 0.164 | Syrup | 7.1 | hygroscopic | 7.1 | – |
| CCCCCCCCCCCCCCCCCC(=O)O [Stearic acid] | – | – | – | – | – | – | – | – | – | pKa (first value) [4]: ˜4.8 |
| CCOC(=O)[C@@H](N)Cc1ccc(O)c(O)c1.CCOC(=O)[C@@H](N)Cc1ccc(O)c(O)c1.O.O.O=C(O)/C=C/C(=O)O [Example 25, LDEE Fumarate Dihydrate] | 5.5 | 4.21 | 2.7 | >48 | 0.0004 | White flowable powder | 0.04 | non-hygroscopic | 0.04 | Assay LDEE (%) [5, 6]: 75.0%; L-DOPA (%) [5, 6]: 0.27%; LD-LDEE (%) [5, 6]: 0.03%; Unknown RRT = 0.72 (%) [5, 6]: 0.09%; cyc.L-DOPA (%) [5, 6]: L.T. 0.03%; Assay LDEE (%) ([5]; Start): 75.0%; L-DOPA (%) ([5]; Start): 0.11%; LD-LDEE (%) ([5]; Start): L.T. 0.03%; water absorption at RH=80% (in words) [3]: did not absorb water; appearance after exposure in a humidity chamber ([3]; more than 48 hrs): white flowable powder |
| CCO.CCOC(=O)[C@@H](N)Cc1ccc(O)c(O)c1.O=C(O)/C=C\C(=O)O [Example 28, LDEE Maleate Ethanolate] | 6.4 | 5.35 | 1.02 | 3 | 0.07 | Yellowish syrup | 3.1 | hygroscopic | 3.1 | – |
| CCOC(=O)[C@@H](N)Cc1ccc(O)c(O)c1.CCOC(=O)[C@@H](N)Cc1ccc(O)c(O)c1.O.O.O=C(O)CCC(=O)O [Example 23, LDEE Succinate Dihydrate] | 5.8 | 3.08 | 1.63 | >72 | 0.006 | White flowable powder | 0.27 | non-hygroscopic | 0.27 | Assay LDEE (%) [5, 6]: 73.46%; L-DOPA (%) [5, 6]: 0.56%; Unknown RRT = 0.83 (%) [5, 6]: 0.03%; cyc.L-DOPA (%) [5, 6]: 0.03%; Assay LDEE (%) ([5]; Start): 74.1%; L-DOPA (%) ([5]; Start): 0.1%; water absorption at RH=80% (in words) [3]: did not absorb water; appearance after exposure in a humidity chamber ([3]; about 72 hrs): white flowable powder |
